In ChEMBL document CHEMBL1131457, “cis-[PtCl2(4,7-H-5-methyl-7-oxo[1,2,4]triazolo[1,5-a]pyrimidine)2]: a sterically restrictive new cisplatin analogue. Reaction kinetics with model nucleobases, DNA interaction studies, antitumor activity, and structure-activity relationships” (J Med Chem, 1998):

Assays:
Type in all cases: functional, cell-based
A121 [1] = test: Dose at which compound exhibits cytotoxicity in the A121 ovarian carcinoma cell line.; settings: Homo sapiens
A121 [2] = test: Cytotoxic effect (tumor cell growth inhibition) on the human cell line A121 ovarian carcinoma at the dose of […]
A121 [3] = test: Cytotoxic effect (tumor cell growth inhibition) on the human cell line A121 ovarian carcinoma at the dose of […]
MCF7 [4] = test: Cytotoxic effect (tumor cell growth inhibition) on the human cell line MCF-7 breast carcinoma at a dose of […]
MCF7 [5] = test: Dose at which compound exhibits cytotoxicity in the MCF-7 cell line.; settings: Homo sapiens

Substance: cis-[PtCl2(Hmtpo-N3)2].2H2O
- ID50 (A121 [1]): 14.3 µM
- Cytotoxic effect (A121 [2]): 53%
- Cytotoxic effect (A121 [3]): 84%
- Cytotoxic effect (MCF7 [4]): 54.8%
- ID50 (MCF7 [5]): 33.4 µM
